From article PMC7822874, “Chemoprotective antimalarials identified through quantitative high-throughput screening of Plasmodium blood and liver stage parasites” (Scientific Reports, 2021)

Tests used:
[1] = tested on: Plasmodium falciparum Dd2 asexual blood stage parasites; test: microbe, parasite or virus in culture; set-up: species or system Plasmodium falciparum Dd2 in human erythrocytes; single determination (one 11-point concentration-response curve); conditions: Plasmodium falciparum, DD2, Erythrocyte, 72 h; read-out: AC50
in vitro = conditions: human
[2] = HepG2-A16-CD81EGFP cells, uninfected

Q: Which AC50 [1] does the source give for `CCCc1cc(=O)oc2cc(C)cc(OCC(=O)Nc3cccnc3)c12` [MLS001160340-01] here?
A: 531 nM

Q: And the viability at 48 h, 1 µM (in vitro; [2])?
A: 106%

Q: What about the viability at 48 h, 3 µM (in vitro; [2]) of the same compound?
A: 99%

Q: With `CCOC(=O)c1cnc2ccc(OC)cc2c1Nc1ccc(N2CCN(C)CC2)cc1` [MLS001164177-01] as the compound, how does the AC50 [1] read?
A: 1680 nM

Q: And the viability at 48 h, 1 µM (in vitro; [2])?
A: 98%

Q: And the viability at 48 h, 3 µM (in vitro; [2])?
A: 94%

Q: Which results are given for `CC(C)Oc1ccc(C(CCNCc2ccc(O)cc2)c2ccccc2)cc1` (centres unmarked) [MLS001164341-01]?
A: AC50 [1]: 668 nM; viability at 66 h (in vitro; [2]): 102%

Q: With `Oc1ccccc1Nc1nc(-c2ccccc2O)nc2ccccc12` [MLS001164904-01] as the compound, how does the AC50 [1] read?
A: 944 nM

Q: And the viability at 66 h (in vitro; [2])?
A: 101%

Q: For `C#CCN1c2ccccc2Sc2cccnc21` [MLS001166384-01], which AC50 [1] is on record?
A: 6680 nM

Q: And the viability at 66 h (in vitro; [2])?
A: 99.6%

Q: Which results are given for `CCCN1CCc2c(sc3nc(SC)n(-c4ccccc4)c(=O)c23)C1` [MLS001173550-01]?
A: AC50 [1]: 2660 nM; viability at 48 h, 1 µM (in vitro; [2]): 112%; viability at 48 h, 3 µM (in vitro; [2]): 101%

Q: What does the source list for `OC(CNC1CCCCCC1)COc1cccc2ccccc12` (centres unmarked) [MLS001174634-01]?
A: AC50 [1]: 1880 nM; viability at 48 h, 1 µM (in vitro; [2]): 103%; viability at 48 h, 3 µM (in vitro; [2]): 98%

Q: Which AC50 [1] does the source give for `Cc1cc(O)c(CN2CC=C(c3ccccc3)CC2)cc1C(C)C` [MLS001176749-01] here?
A: 335 nM

Q: What about the viability at 48 h, 1 µM (in vitro) of the same compound?
A: 106%

Q: What about the viability at 48 h, 3 µM (in vitro) of the same compound?
A: 105%

Q: With `Clc1ccc2c(NCc3ccccn3)ccnc2c1` [MLS001178012-01] as the compound, how does the AC50 [1] read?
A: 2110 nM

Q: And the viability at 66 h (in vitro; [2])?
A: 107%

Q: For `CCOC(=O)C1=C(C)N=c2sc(=Cc3ccc(OCC(=O)O)cc3)c(=O)n2C1c1cc(OC)c(OC)c(OC)c1` (centres unmarked) [MLS001178475-01], which AC50 [1] is on record?
A: 1880 nM

Q: And the viability at 48 h (in vitro; [2])?
A: 98%

Q: What about the viability at 48 h, 1 µM (in vitro; [2]) of the same compound?
A: 98%

Q: Which AC50 [1] does the source give for `c1ccc2c(NCCc3c[nH]c4ccccc34)c3ccccc3nc2c1` [MLS001195935-01] here?
A: 1880 nM

Q: What about the viability at 48 h, 1 µM (in vitro; [2]) of the same compound?
A: 92%

Q: And the viability at 48 h, 3 µM (in vitro; [2])?
A: 83%

Q: For `CCOC(=O)c1c(C)n(-c2ccc(F)cc2)c2ccc(O)cc12` [MLS001195957-01], which AC50 [1] is on record?
A: 6680 nM

Q: And the viability at 48 h, 1 µM (in vitro; [2])?
A: 109%

Q: What about the viability at 48 h, 3 µM (in vitro; [2]) of the same compound?
A: 93%

Q: For `O=c1c2ccccc2nc(/C=C/c2cc(Br)ccc2O)n1CCCO` [MLS001197097-01], which AC50 [1] is on record?
A: 9440 nM

Q: And the viability at 66 h (in vitro; [2])?
A: 103%

Q: Which AC50 [1] does the source give for `COc1cc(C(=O)Nc2ccc3nc(N4CCN(C)CC4)cc(C)c3c2)cc(OC)c1OC` [MLS001197839-01] here?
A: 3350 nM

Q: What about the viability at 48 h, 1 µM (in vitro; [2]) of the same compound?
A: 101%

Q: What about the viability at 48 h, 3 µM (in vitro; [2]) of the same compound?
A: 103%

Q: With `CCCCC(O)(c1ccc(CC)cc1)C(CN1CCOCC1)c1ccccc1` (centres unmarked) [MLS001198887-01] as the compound, how does the AC50 [1] read?
A: 4730 nM

Q: What about the viability at 48 h, 1 µM (in vitro; [2]) of the same compound?
A: 88%

Q: And the viability at 48 h, 3 µM (in vitro; [2])?
A: 85%

Q: What does the source list for `CN(CCNC(=O)c1cc2c(-c3ccccc3F)nn(C)c2s1)C1CCCCC1` [MLS001199243-01]?
A: AC50 [1]: 5960 nM; viability at 48 h, 1 µM (in vitro; [2]): 84%; viability at 48 h, 3 µM (in vitro; [2]): 84%

Q: Which results are given for `CCCCN(C)CCNC(=O)c1cc2c(-c3cccc(OC)c3)nn(C)c2s1` [MLS001199565-01]?
A: AC50 [1]: 6680 nM; viability at 48 h, 1 µM (in vitro; [2]): 86%; viability at 48 h, 3 µM (in vitro; [2]): 85%

Q: For `CN(C)c1cc[n+](CC(=O)c2cccs2)cc1` [MLS001207444-01], which AC50 [1] is on record?
A: 6680 nM

Q: What about the viability at 66 h (in vitro; [2]) of the same compound?
A: 101%

Q: Which AC50 [1] does the source give for `C/C(Cl)=C/Cc1c(C)nc2c(ccc3ccccc32)c1O` [MLS001211902-01] here?
A: 841 nM

Q: And the viability at 48 h, 1 µM (in vitro; [2])?
A: 86%

Q: And the viability at 48 h, 3 µM (in vitro; [2])?
A: 92%

Q: For `CCSc1nc2sc3c(c2c(=O)n1-c1ccccc1)CCN(C)C3` [MLS001212076-01], which AC50 [1] is on record?
A: 6680 nM

Q: What about the viability at 48 h, 1 µM (in vitro; [2]) of the same compound?
A: 104%

Q: And the viability at 48 h, 3 µM (in vitro; [2])?
A: 103%

Q: For `COc1ccc(C2c3[nH]c4ccccc4c3C[C@H]3C(=O)N(C4CCN(Cc5ccccc5)CC4)CC(=O)N23)c(OC)c1` (some centres unmarked) [MLS001213218-01], which AC50 [1] is on record?
A: 2370 nM

Q: And the viability at 48 h, 1 µM (in vitro; [2])?
A: 106%

Q: And the viability at 48 h, 3 µM (in vitro; [2])?
A: 102%

Q: Which AC50 [1] does the source give for `O=c1c(-c2ccc(Br)cc2)coc2c(CN3CCCCC3)c(O)ccc12` [MLS001214902-01] here?
A: 2110 nM

Q: What about the viability at 66 h (in vitro; [2]) of the same compound?
A: 98.2%

Q: What does the source list for `COc1ccccc1C1c2[nH]c3ccccc3c2C[C@H]2C(=O)N(C3CCN(Cc4ccccc4)CC3)CC(=O)N12` (some centres unmarked) [MLS001215063-01]?
A: AC50 [1]: 2110 nM; viability at 48 h, 1 µM (in vitro; [2]): 87%; viability at 48 h, 3 µM (in vitro; [2]): 85%

Q: With `CCOc1ccccc1C1c2[nH]c3ccccc3c2C[C@H]2C(=O)N(C3CCN(Cc4ccccc4)CC3)CC(=O)N12` (some centres unmarked) [MLS001215140-01] as the compound, how does the AC50 [1] read?
A: 2370 nM

Q: What about the viability at 48 h, 1 µM (in vitro; [2]) of the same compound?
A: 106%

Q: And the viability at 48 h, 3 µM (in vitro; [2])?
A: 101%

Q: What does the source list for `O=C(NCCCNc1ccnc2cc(Cl)ccc12)c1ccccc1F` [MLS001215856-01]?
A: AC50 [1]: 841 nM; viability at 48 h, 1 µM (in vitro; [2]): 85%; viability at 48 h, 3 µM (in vitro; [2]): 88%

Q: Which AC50 [1] does the source give for `C=C(C)COc1ccc(-c2ncnc(C(F)(F)F)c2-c2ccccc2)c(O)c1` [MLS001216193-01] here?
A: 2370 nM

Q: And the viability at 48 h, 1 µM (in vitro; [2])?
A: 104%

Q: And the viability at 48 h, 3 µM (in vitro; [2])?
A: 97%
